Measurements: patent publication US6756526B2, “Drought tolerant plants and methods of increasing drought tolerance in plants” (Kansas State University Research Foundation, priority 2001, dated 2004)
Entries after “also recorded” stand apart in the source; their conditions may differ.

Assays:
[1] = tested on: PLDα-depleted (antisense) Arabidopsis leaves; assay: Stomatal closure measured as diffusion resistance (steady state porometer) in detached leaves incubated with ABA; assay type: in vivo, Arabidopsis thaliana; conditions: PLDα-suppressed leaves
Procedure: (§1) The depletion of PLDα in guard cells provides a means of assessing the role of PLD in stomatal movement. Stomatal closure was determined by measuring diffusion resistance using a steady-state porometer. Briefly, detached Arabidopsis leaves were floated with the abaxial side downward in a solution containing 5 mM MES-KOH (pH 6.1), 22 mM KCl, and 1 mM CaCl2 for 1 hour under the same light conditions used for growing plants. Leaves then were incubated without or with ABA at indicated concentrations. ABA was made as a 10 mM stock solution in 5% dimethyl sulfoxide (DMSO), and the same amount of DMSO (0.005%) was also added to the control solution in all treatments. Stomatal aperture of detached leaves was measured as diffusion resistance with a steady state porometer using the method of Thimann and S. O. Satler, Relation Between Leaf Senescence and Stomatal Closure: Senescence in Light, 76 Proc. Natl. Acad. Sci. USA, 2295-2298 (1979). For tobacco plants, leaf diffusion resistance was also measured in leaves attached to approximately 2-month-old plants following foliar spraying of ABA at indicated concentrations. Changes in diffusion resistance in response to ABA in both detached and intact leaves were monitored at indicated time intervals. Before drought treatment was imposed, Arabidopsis plants were grown in a greenhouse for 6-8 weeks and watered regularly. Soil water content in each pot was adjusted to approximately the same level before drought treatment. Plants were subjected to drought by withholding irrigation and the soil surface in each pot was covered with plastic wraps to minimize evaporation. Soil moisture in the 0-20 cm soil layer was monitored during drought using a time domain reflectometer. When ABA (10 μM) was sprayed on plants in some treatments, control groups of plants were sprayed with water in the same amount as for the ABA treatment. Leaves were collected at various times of drought treatment, and leaf water potential (ψw) was measured with a thermocouple psychrometer.
(§2) Detached Arabidopsis leaves were floated with the abaxial side downward in a solution containing 5 mM MES-KOH (pH 6.1), 22 mM KCl, and 1 mM CaCl2 for 1 hour under the same light conditions used for growing plants. Leaves then were incubated without or with ABA at indicated concentrations. ABA was made as a 10 mM stock solution in 5% dimethyl sulfoxide (DMSO), and the same amount of DMSO (0.005%) was also added to the control solution in all treatments. Stomatal aperture was measured as diffusion resistance with a steady state porometer (Li-COR 1600, Lincoln, Nebr.). The porometer was set for aperture of 0.5 cm^2, pressure of 100 pa, and relative humidity of 30%. Changes in diffusion resistance were monitored on plants at indicated time intervals.

[2] = tested on: wild-type Arabidopsis leaves; assay: as above; assay type: in vivo, Arabidopsis thaliana
Procedure: as §1, §2

[3] = tested on: PLDα-deficient Arabidopsis plants; assay: Progressive drought by withholding irrigation, with ABA spray; assay type: in vivo, Arabidopsis thaliana; conditions: ABA 10 μM sprayed once a day, PLDα-deficient plants under drought
Procedure: as §1, with “Before drought treatment was imposed, Arabidopsis plants were grown in a greenhouse for 6-8 weeks and watered regularly. Soil water content in each pot was adjusted to approximately the same level before drought treatment. Plants were subjected to drought by withholding irrigation and the soil surface in each pot was covered with plastic wraps to minimize evaporation.” left out, “When ABA (10 μM) was sprayed on plants in some treatments, control groups of plants were sprayed with water in the same amount as for the ABA treatment. Leaves were collected at various times of drought treatment, and leaf water potential (ψw) was measured with a thermocouple psychrometer.” left out

[4] = tested on: wild-type Arabidopsis plants; assay: as above; assay type: in vivo, Arabidopsis thaliana; conditions: ABA 10 μM sprayed once a day, wild-type plants under drought
Procedure: as §1, with “Before drought treatment was imposed, Arabidopsis plants were grown in a greenhouse for 6-8 weeks and watered regularly. Soil water content in each pot was adjusted to approximately the same level before drought treatment. Plants were subjected to drought by withholding irrigation and the soil surface in each pot was covered with plastic wraps to minimize evaporation.” left out, “When ABA (10 μM) was sprayed on plants in some treatments, control groups of plants were sprayed with water in the same amount as for the ABA treatment. Leaves were collected at various times of drought treatment, and leaf water potential (ψw) was measured with a thermocouple psychrometer.” left out

[5] = tested on: control tobacco plants (empty vector); assay: Leaf diffusion resistance measured directly on plants after foliar ABA spray; assay type: in vivo, Nicotiana tabacum; conditions: 2.5 and 5 μM ABA sprayed, 20 minutes after application, relative to plants sprayed with water
Procedure: as §1, with “Before drought treatment was imposed, Arabidopsis plants were grown in a greenhouse for 6-8 weeks and watered regularly. Soil water content in each pot was adjusted to approximately the same level before drought treatment. Plants were subjected to drought by withholding irrigation and the soil surface in each pot was covered with plastic wraps to minimize evaporation.” left out, “When ABA (10 μM) was sprayed on plants in some treatments, control groups of plants were sprayed with water in the same amount as for the ABA treatment. Leaves were collected at various times of drought treatment, and leaf water potential (ψw) was measured with a thermocouple psychrometer.” left out

[6] = tested on: PLD; conditions: tissues or guard cells treated with ABA; cited from earlier work
[7] = tested on: protoplasts of barley aleurone and Vicia faba guard cells; conditions: cited from earlier work
[8] = tested on: guard cell protoplasts; conditions: PA applied to guard cell protoplasts; cited from earlier work

Compound | effect on stomatal closure ([1]; 2 μM ABA) | ABA-induced increase in diffusion resistance, relative to that observed in wild-type leaves ([1]; 10 μM ABA) | ABA concentration at which diffusion resistance reached a plateau ([1]; 0.5-50 μM ABA tested, 20 minutes) [µM] | effect on stomatal closure ([2]; 2 μM ABA, wild-type leaves) | increase in diffusion resistance (stomatal closure) ([2]; 10 μM ABA, detached wild-type leaves) | persistence of the ABA effect on diffusion resistance ([2]; 10 μM ABA, wild-type) | effect on water loss and drought resistance [3] | effect on drought resistance (leaf turgidity, leaf water potential, soil water content) [4] | increase in leaf diffusion resistance [5] | PLD activity (and gene expression) after ABA [6] | effect of PA addition compared with ABA [7] | ionic efflux [8]
CC1=CC(=O)CC(C)(C)[C@@]1(O)/C=C/C(C)=C\C(=O)O [ABA, abscisic acid] | no effect | approximately 50% | > 50 | stimulated stomatal closure | approximately twofold | more than 30 minutes | no detectable effect | enhanced resistance to drought; also recorded: improves this drought resistance | about 30% | increased; also recorded: increases PLD activity |  | 
phosphatidic acid [PA] |  |  |  |  |  |  |  |  |  |  | partially mimicked the effect of ABA | increase in ionic efflux
